# From PMC5698418 (Nature Communications, 2017)
# Where a name gives a salt, the structure may show the parent alone. Read-outs that look alike come from different tables or passages of the source.
# Test system: BDNF-induced nuclear Arc expression in primary cortical neurons
# Test: Chemogenomic screen: high-content image-based assay of BDNF-induced nuclear Arc expression (96-well)
# Format: cell-based, mouse
# Procedure: To increase the throughput of our pharmacological screening for modulators of Arc, the above mentioned assay was adapted to cultures of mouse primary cortical neurons in 96-well plates.
# All 319 compounds were initially tested at a final concentration of 16.7 µM with three biological replicates.
# Screening of compounds in the chemogenomic library was carried out using DIV13 primary forebrain cortical neurons cultured on poly-L-lysine/laminin-coated 96-well plates (Ibidi USA, Madison, WI). Cells were seeded at a density of 30,000 cells per well and treated with the compound library and BDNF according to the experimental design presented in Fig. 3a. After experimental treatment, cells were processed for Arc and acetyl-H3K9 immunocytochemistry according to the protocol described above. Both antigens (Arc and acetyl-H3K9) were imaged using an IN Cell Analyzer 6000 imaging system and a ×40 objective. […] High-throughput quantification of nuclear Arc immunofluorescence signal was performed in a similar fashion than the low-throughput procedure described above but with the exception that acetyl-H3K9 was used as a nuclear mask to guide the automated quantification of nuclear Arc immunofluorescence signal.
# [1] = chemogenomic (SMART) screen, BDNF-induced nuclear Arc expression, primary cortical neurons, BDNF control 19.5
# [2] = nuclear Arc-positive cells relative to DMSO + BDNF control, negative values = decrease
# [3] = BDNF-induced nuclear Arc expression, primary cortical neurons, chemogenomic screen
# [4] = nuclear Arc-positive cells relative to DMSO control (BDNF), negative = decrease
Compound,Percentage of cell with nuclear Arc immunostaining above 2σ threshold [1],Fold-change — Normalized to DMSO control (BDNF) [2],further results
CC(CN(C)C)CN1c2ccccc2CCc2ccccc21 (stereo not shown) [Trimipramine maleate],21.9%,1.1 fold,–
CN[C@@H]1Cc2cccc3[nH]c(=O)n(c23)C1 [Sumanirole],40.3%,2.1 fold,–
CNCC[C@@H](Oc1ccccc1C)c1ccccc1 [Atomoxetine],17.6%,–,–
O=C(CCCN1CCC(O)(c2ccc(Br)cc2)CC1)c1ccc(F)cc1 [Bromperidol],28.9%,1.5 fold,–
O=c1[nH]c2ccccc2n1CCCN1CCC(n2c(=O)[nH]c3cc(Cl)ccc32)CC1 [Domperidone],15.3%,–,–
CN1C(=O)CC(c2ccccc2)C1=O (stereo not shown) [Phensuximide],24.8%,1.3 fold,–
Eburnamonine (-),18.5%,-1.1 fold,–
Cc1ccc(Sc2ccccc2N2CCNCC2)c(C)c1 [Vortioxetine],–,–,Percentage of cell with nuclear Arc immunostaining above 2σ threshold [3]: 0.0%
NC(=O)N1c2ccccc2C=Cc2ccccc21 [Carbamazepine],–,–,Percentage of cell with nuclear Arc immunostaining above 2σ threshold [3]: 7.2%
CN(C)CCOC(=O)COc1ccc(Cl)cc1.Cl [Meclofenoxate hydrochloride],–,1.4 fold,Percentage of cell with nuclear Arc immunostaining above 2σ threshold: 28.2%
Nc1ccn([C@@H]2O[C@H](CO)[C@@H](O)[C@H]2O)c(=O)n1 [Cytidine],34.8%,1.8 fold,–
CN(C)CCC(c1ccc(Cl)cc1)c1ccccn1 (stereo not shown) [Chlorphenamine],31.0%,1.6 fold,–
COc1ccc2cccc(CCNC(C)=O)c2c1 [Agomelatine],17.6%,–,–
CNC(=O)N1N=C(c2ccc(N)cc2)c2cc3c(cc2CC1C)OCO3 (stereo not shown) [GYKI-53655],35.7%,1.8 fold,–
C[C@H](NC[C@H](O)CP(=O)(O)Cc1ccccc1)c1ccc(Cl)c(Cl)c1 [CGP 55845],–,1.3 fold,Percentage of cell with nuclear Arc immunostaining above 2σ threshold: 24.6%
COc1cc2c(cc1OC)-c1cc3ccc(OC)c(OC)c3c[n+]1CC2 [Palmatine],–,–,Percentage of cell with nuclear Arc immunostaining above 2σ threshold: 1.1%; Fold-change — Normalized to DMSO control (BDNF) [4]: -17.5 fold
CN(C)CCC=C1c2ccccc2COc2ccccc21 [Doxepin],–,–,Percentage of cell with nuclear Arc immunostaining above 2σ threshold [3]: 10.2%
N#Cc1ccccc1-c1cc(-c2ccccn2)cn(-c2ccccc2)c1=O [Perampanel],–,–,Percentage of cell with nuclear Arc immunostaining above 2σ threshold: 12.4%
NC(=O)OCC(COC(N)=O)c1ccccc1 [Felbamate],14.3%,–,–

Compound,Percentage of cell with nuclear Arc immunostaining above 2σ threshold [1],Fold-change — Normalized to DMSO control (BDNF) [2],further results
C=C[C@@]1(C)CC(=O)[C@]2(O)[C@@]3(C)[C@@H](O)CCC(C)(C)[C@@H]3[C@H](OC(=O)CCN(C)C)[C@H](OC(C)=O)[C@@]2(C)O1.Cl [Colforsin dapropate hydrochloride],21.7%,1.1 fold,–
CCCC(CCC)C(N)=O [Valpromide],19.8%,1.0 fold,–
CC(=O)Nc1nnc(S(N)(=O)=O)s1 [Acetazolamide],–,–,Percentage of cell with nuclear Arc immunostaining above 2σ threshold [3]: 4.9%
CHIR-98014,–,–,Fold-change — Normalized to DMSO control (BDNF): -1.0 fold; Percentage of cell with nuclear Arc immunostaining above 2σ threshold: 19.2%
CCN1CCN(c2cc(-c3ccc(F)cc3)c3c(n2)CCCCCC3)CC1 [Blonanserin],–,–,Percentage of cell with nuclear Arc immunostaining above 2σ threshold [3]: 10.9%
CC(NC(C)(C)C)C(=O)c1cccc(Cl)c1 (stereo not shown) [Bupropion],–,–,Percentage of cell with nuclear Arc immunostaining above 2σ threshold [3]: 9.0%
C/C=C1\[C@H]2C=C(C)C[C@]1(N)c1ccc(=O)[nH]c1C2 [Huperzine A],14.8%,–,–
O=C(c1ccc2c(c1)OCCO2)N1CCCCC1 [CX-546],–,–,Percentage of cell with nuclear Arc immunostaining above 2σ threshold: 6.5%; Fold-change — Normalized to DMSO control (BDNF) [4]: -3.0 fold
CC[N+](CC)(CCNC(=O)C(=O)NCC[N+](CC)(CC)Cc1ccccc1Cl)Cc1ccccc1Cl [Ambenonium],–,–,Percentage of cell with nuclear Arc immunostaining above 2σ threshold: 15.1%
O=C(O)c1cc2cc(O)c(O)cc2c(C(=O)c2ccc(O)c(O)c2)n1 [NBI-31772],–,–,Percentage of cell with nuclear Arc immunostaining above 2σ threshold: 2.7%; Fold-change — Normalized to DMSO control (BDNF) [4]: -7.3 fold
CCCN[C@H]1CCc2nc(N)sc2C1 [Pramipexole],14.5%,–,–
COc1ccc(C(=O)NCc2ccc(OCCN(C)C)cc2)cc1OC.Cl [Itopride hydrochloride],–,1.2 fold,Percentage of cell with nuclear Arc immunostaining above 2σ threshold: 23.8%
NC(=O)CN1CCCC1=O [Piracetam],–,–,Percentage of cell with nuclear Arc immunostaining above 2σ threshold [3]: 10.5%
CN1CCN2c3ccccc3Cc3ccccc3C2C1 (stereo not shown) [Mianserin],18.5%,–,–
Clc1ccc2c(c1)C(N1CCNCC1)=Nc1ccccc1O2 [Amoxapine],12.9%,–,–
CN1CCN(C2=Nc3ccccc3Oc3ccc(Cl)cc32)CC1 [Loxapine],21.2%,1.1 fold,–
O=C(c1ccccc1)c1ccc2n1CCC2C(=O)O (stereo not shown) [Ketorolac],36.8%,1.9 fold,–
CO[C@]12C[C@@H](COC(=O)c3cncc(Br)c3)CN(C)[C@@H]1Cc1cn(C)c3cccc2c13 [Nicergoline],–,–,Percentage of cell with nuclear Arc immunostaining above 2σ threshold [3]: 6.1%
Cc1cc(-c2ccccc2)nnc1NCCN1CCOCC1 [Minaprine],21.8%,1.1 fold,–

Compound,Percentage of cell with nuclear Arc immunostaining above 2σ threshold [1],Fold-change — Normalized to DMSO control (BDNF) [2],further results
CCN(CC)CCNC(=O)c1cc(S(C)(=O)=O)ccc1OC [Tiapride hydrochloride],20.9%,1.1 fold,–
Cn1sc(=O)n(Cc2ccccc2)c1=O [TDZD-8],–,–,Percentage of cell with nuclear Arc immunostaining above 2σ threshold [3]: 1.7%; Fold-change — Normalized to DMSO control (BDNF) [4]: -11.7 fold
Nc1c2c(nc3ccccc13)CCCC2O (stereo not shown) [Hydroxytacrine],36.9%,1.9 fold,–
OCCCCC#Cc1cncc(OC[C@@H]2CCN2)c1 [Sazetidine A],–,1.8 fold,Percentage of cell with nuclear Arc immunostaining above 2σ threshold: 35.2%
O=c1cccc2n1C[C@@H]1CNC[C@H]2C1 [Cytisine],–,–,Percentage of cell with nuclear Arc immunostaining above 2σ threshold: 15.7%
O=C(O)CCCNC(=O)c1cccnc1 [Pikamilone],38.6%,2.0 fold,–
COc1cc2c(cc1OC)[C@@H]1Cc3ccc(OC)c(OC)c3CN1CC2 [Rotundine],28.7%,1.5 fold,–
NC(=O)c1cn(Cc2c(F)cccc2F)nn1 [Rufinamide],20.3%,1.0 fold,–
Bromocryptine,–,2.3 fold,Percentage of cell with nuclear Arc immunostaining above 2σ threshold: 45.0%
O=C(COc1ccc(Cl)cc1)N1CCN(Cc2ccc3c(c2)OCO3)CC1 [Fipexide],41.7%,2.1 fold,–
CCOc1cc(CC(=O)N[C@@H](CC(C)C)c2ccccc2N2CCCCC2)ccc1C(=O)O [Repaglinide],19.5%,1.0 fold,–
COc1ccc(-c2oc3c(CC=C(C)C)c(O[C@@H]4O[C@H](CO)[C@@H](O)[C@H](O)[C@H]4O)cc(O)c3c(=O)c2O[C@@H]2O[C@@H](C)[C@H](O)[C@@H](O)[C@H]2O)cc1 [Icariin],43.8%,2.2 fold,–
"O=c1cc(-c2ccccc2)oc2c(O)c(O)ccc12 [7,8-Dihydroxyflavone]",32.7%,1.7 fold,–
CN1CCc2cc3c(cc2[C@H]1[C@@H]1OC(=O)c2c1ccc1c2OCO1)OCO3 [(+)-Bicuculline],–,1.1 fold,Percentage of cell with nuclear Arc immunostaining above 2σ threshold: 20.9%
Cc1nc2n(c(=O)c1CCN1CCC(c3noc4cc(F)ccc34)CC1)CCCC2O (stereo not shown) [Paliperidone],15.2%,–,–
CCN(CC)C(=O)/C(C#N)=C/c1cc(O)c(O)c([N+](=O)[O-])c1 [Entacapone],27.9%,1.4 fold,–
Oc1ccc(/C=C/c2cc(O)cc(O)c2)cc1 [Resveratrol],36.0%,1.8 fold,–
CC(=C(CCO)SSCC1CCCO1)N(C=O)Cc1cnc(C)nc1N (stereo in doubt) [Fursultiamine],–,–,Percentage of cell with nuclear Arc immunostaining above 2σ threshold: 15.4%
